What was measured:
EGFR L858R = EGFR L858R (Homo sapiens, UniProt P00533, L858R); assay: Kinase inhibitory activity against EGFR bearing the L858R mutation; assay type: biochemical; conditions: 10 pt curves, 3 μM top concentration, 10 μM ATP; read-out: IC50 for kinase inhibition, EGFR L858R
In short: (§1)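 Each assay used 10 μM ATP. Inhibitors were tested as 10-point curves, highest concentration 3 μM, no replicates.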

[1] = target: T1, BaF3 cells expressing the target EGFR mutations (Homo sapiens, UniProt P00533, T790M, cells depend on it, form not given); assay: Antiproliferative activity (MTT) against BaF3 cells expressing the target EGFR mutations; assay type: cell-based; conditions: BAF3 EGFR DEL T790M PURO POOL cells, read-out: IC50, BAF3 EGFR DEL T790M PURO POOL
T1 construct: IC50, BAF3 EGFR DEL T790M PURO POOL; other: BAF3 EGFR DEL T790M PURO POOL cells, MTT; other: BAF3 EGFR DEL T790M PURO POOL cells; MTT
In short: (§2)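 Growth inhibition of EGFR-mutant BaF3 cells was assessed with an MTT assay. A BaF3 line expressing wildtype EGFR served as comparator.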

[2] = target: T2, BaF3 cells expressing the target EGFR mutations (Homo sapiens, UniProt P00533, T790M/L858R, cells depend on it); assay: as above; assay type: cell-based; conditions: BAF3 EGFR L858R-T790M PURO POOL cells, read-out: IC50, BAF3 EGFR L858R-T790M PURO POOL
T2 construct: IC50, BAF3 EGFR L858R-T790M PURO POOL; other: BAF3 EGFR L858R-T790M PURO POOL cells, MTT; IC50, BAF3 EGFR L858R-T790M PURO POOL; other: BAF3 EGFR L858R-T790M PURO POOL cells; MTT
In short: as §2

[3] = target: human EGFR (native sequence) (Homo sapiens, UniProt P00533); assay: Kinase inhibitory activity against human EGFR (native sequence); assay type: biochemical; conditions: 10 pt curves, 3 μM top concentration, 10 μM ATP; read-out: IC50 for kinase inhibition, EGFR
In short: as §1

EGFR L858R/T790M = EGFR L858R/T790M (Homo sapiens, UniProt P00533, L858R/T790M); assay: Kinase inhibitory activity against EGFR bearing the L858R/T790M double mutation; assay type: biochemical; conditions: 10 pt curves, 3 μM top concentration, 10 μM ATP; read-out: IC50 for kinase inhibition, EGFR L858R T790M
In short: as §1

[4] = system: BaF3 cells expressing wildtype EGFR; assay: Antiproliferative activity (MTT) against control BaF3 cells expressing wildtype EGFR; assay type: cell-based; conditions: Mus musculus, BAF3 parental cells
In short: as §2

EGFR L858R, sequence (P00533 25-1210 L858R): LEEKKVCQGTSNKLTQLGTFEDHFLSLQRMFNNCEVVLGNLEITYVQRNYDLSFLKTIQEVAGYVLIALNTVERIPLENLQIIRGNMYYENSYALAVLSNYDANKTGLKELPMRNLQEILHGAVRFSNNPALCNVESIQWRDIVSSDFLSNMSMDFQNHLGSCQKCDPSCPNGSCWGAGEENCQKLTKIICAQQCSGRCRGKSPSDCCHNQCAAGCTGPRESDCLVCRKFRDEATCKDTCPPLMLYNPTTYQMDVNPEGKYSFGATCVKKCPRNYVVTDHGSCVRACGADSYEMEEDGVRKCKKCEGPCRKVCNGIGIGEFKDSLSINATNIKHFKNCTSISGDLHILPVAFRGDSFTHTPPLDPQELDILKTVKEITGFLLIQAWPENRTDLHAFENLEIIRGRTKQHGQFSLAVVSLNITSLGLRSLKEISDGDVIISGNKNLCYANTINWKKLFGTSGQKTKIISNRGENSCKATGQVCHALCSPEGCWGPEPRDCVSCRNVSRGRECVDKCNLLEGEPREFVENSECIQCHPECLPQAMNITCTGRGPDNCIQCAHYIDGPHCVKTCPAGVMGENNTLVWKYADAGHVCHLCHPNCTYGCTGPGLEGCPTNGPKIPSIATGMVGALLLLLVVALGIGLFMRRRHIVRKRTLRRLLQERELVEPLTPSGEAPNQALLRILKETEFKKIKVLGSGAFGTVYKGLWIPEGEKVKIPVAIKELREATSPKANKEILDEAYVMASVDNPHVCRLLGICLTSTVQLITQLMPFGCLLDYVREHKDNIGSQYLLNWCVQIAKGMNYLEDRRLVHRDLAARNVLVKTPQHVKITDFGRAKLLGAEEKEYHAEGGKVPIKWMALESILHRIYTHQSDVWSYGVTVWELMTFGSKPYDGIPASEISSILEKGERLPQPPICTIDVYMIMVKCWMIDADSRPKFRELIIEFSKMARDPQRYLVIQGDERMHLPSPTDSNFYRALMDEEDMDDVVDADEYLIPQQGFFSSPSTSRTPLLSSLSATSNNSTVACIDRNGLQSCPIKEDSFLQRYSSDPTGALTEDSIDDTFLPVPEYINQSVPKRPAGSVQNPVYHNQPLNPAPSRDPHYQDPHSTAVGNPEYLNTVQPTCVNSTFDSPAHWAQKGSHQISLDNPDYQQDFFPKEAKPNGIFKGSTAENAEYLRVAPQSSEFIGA
T2 sequence (P00533 whole entry T790M/L858R): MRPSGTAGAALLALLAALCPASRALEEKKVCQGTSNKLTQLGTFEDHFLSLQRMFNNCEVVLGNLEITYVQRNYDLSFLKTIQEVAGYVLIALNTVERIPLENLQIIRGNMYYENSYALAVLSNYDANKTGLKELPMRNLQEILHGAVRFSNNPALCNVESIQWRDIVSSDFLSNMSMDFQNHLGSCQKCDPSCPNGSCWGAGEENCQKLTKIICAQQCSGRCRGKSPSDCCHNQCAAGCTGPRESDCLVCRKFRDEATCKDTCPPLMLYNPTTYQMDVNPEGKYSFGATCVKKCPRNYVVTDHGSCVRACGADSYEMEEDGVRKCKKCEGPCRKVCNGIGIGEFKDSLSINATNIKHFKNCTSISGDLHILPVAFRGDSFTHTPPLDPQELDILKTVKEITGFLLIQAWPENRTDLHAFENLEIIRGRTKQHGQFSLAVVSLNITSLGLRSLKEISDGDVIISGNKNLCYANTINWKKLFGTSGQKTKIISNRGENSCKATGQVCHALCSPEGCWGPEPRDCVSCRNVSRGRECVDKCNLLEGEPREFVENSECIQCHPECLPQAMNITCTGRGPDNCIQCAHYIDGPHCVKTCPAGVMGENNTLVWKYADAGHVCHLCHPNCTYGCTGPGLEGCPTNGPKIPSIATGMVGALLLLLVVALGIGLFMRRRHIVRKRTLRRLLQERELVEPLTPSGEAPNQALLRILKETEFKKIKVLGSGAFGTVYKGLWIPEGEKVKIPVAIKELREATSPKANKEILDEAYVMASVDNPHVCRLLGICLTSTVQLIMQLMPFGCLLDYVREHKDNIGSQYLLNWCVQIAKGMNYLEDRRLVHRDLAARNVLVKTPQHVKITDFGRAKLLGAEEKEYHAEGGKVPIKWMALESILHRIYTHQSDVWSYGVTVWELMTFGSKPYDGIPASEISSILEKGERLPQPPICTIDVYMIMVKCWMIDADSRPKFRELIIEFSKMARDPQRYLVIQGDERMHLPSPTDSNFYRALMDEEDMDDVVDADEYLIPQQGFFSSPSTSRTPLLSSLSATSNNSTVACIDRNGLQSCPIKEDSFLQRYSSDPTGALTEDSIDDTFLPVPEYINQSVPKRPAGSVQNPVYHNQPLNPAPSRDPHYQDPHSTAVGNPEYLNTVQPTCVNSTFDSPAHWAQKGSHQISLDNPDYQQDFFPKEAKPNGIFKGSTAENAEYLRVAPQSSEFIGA
T1 sequence (P00533 with tags, fused parts or gaps DEL746-750/T790M, form open): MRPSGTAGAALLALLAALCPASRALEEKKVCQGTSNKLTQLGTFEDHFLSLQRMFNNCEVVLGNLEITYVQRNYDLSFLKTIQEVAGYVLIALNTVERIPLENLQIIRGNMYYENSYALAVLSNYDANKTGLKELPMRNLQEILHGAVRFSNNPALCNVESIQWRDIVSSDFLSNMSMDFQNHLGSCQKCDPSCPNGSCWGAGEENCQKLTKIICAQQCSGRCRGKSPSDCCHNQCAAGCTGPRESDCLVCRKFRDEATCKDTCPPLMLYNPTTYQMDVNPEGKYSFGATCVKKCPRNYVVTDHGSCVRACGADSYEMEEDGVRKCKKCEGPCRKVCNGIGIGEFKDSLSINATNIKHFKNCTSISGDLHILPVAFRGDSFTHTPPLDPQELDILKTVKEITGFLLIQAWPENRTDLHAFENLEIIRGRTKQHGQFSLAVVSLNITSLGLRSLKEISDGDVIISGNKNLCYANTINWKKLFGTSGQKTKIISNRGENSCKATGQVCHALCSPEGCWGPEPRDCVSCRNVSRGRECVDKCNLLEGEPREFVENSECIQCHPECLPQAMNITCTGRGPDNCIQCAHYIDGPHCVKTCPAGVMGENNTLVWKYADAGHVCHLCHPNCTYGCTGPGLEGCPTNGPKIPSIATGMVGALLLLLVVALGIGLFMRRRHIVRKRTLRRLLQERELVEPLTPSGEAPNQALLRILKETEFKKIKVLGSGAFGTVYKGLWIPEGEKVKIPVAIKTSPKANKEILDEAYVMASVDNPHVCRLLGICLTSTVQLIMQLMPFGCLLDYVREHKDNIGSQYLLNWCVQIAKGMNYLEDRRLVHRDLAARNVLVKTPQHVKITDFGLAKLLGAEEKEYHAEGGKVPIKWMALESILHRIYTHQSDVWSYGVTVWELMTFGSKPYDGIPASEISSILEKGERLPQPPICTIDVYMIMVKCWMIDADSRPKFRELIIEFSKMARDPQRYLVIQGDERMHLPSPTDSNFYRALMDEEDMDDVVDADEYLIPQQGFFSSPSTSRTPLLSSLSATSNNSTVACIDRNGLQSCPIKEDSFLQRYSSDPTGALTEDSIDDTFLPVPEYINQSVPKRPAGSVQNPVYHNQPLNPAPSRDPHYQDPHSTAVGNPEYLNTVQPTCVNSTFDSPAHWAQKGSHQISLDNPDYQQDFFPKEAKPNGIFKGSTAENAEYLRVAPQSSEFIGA
human EGFR (native sequence), sequence (P00533 25-1210): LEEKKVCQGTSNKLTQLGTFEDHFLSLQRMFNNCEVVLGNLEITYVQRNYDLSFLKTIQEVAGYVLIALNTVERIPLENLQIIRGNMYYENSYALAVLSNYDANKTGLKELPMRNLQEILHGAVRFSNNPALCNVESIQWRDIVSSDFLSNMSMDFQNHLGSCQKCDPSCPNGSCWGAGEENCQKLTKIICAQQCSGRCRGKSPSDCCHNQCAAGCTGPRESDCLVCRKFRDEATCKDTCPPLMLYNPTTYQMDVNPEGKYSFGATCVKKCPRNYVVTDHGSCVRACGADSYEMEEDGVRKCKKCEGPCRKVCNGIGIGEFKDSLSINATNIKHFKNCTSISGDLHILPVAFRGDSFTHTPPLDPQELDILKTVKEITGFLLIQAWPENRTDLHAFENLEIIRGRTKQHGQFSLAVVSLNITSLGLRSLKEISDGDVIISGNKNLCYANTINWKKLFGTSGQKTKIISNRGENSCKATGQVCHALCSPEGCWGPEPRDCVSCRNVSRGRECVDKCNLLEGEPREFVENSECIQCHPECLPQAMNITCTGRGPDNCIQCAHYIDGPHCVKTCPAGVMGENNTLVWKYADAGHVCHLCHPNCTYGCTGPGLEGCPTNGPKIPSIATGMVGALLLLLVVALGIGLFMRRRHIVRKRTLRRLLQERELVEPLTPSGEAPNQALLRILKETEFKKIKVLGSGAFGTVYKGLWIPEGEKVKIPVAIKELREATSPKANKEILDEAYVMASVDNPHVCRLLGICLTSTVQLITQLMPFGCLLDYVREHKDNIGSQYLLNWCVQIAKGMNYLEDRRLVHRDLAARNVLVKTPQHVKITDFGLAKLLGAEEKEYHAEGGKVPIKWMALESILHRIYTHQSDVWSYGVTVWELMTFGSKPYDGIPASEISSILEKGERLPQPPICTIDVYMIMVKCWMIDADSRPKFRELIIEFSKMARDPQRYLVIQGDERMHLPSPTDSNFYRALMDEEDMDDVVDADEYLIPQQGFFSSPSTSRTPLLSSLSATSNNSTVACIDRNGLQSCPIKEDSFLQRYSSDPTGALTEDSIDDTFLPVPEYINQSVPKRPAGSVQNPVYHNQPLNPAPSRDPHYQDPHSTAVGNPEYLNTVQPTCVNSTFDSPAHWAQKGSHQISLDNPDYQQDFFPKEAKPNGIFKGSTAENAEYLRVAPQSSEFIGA

C=CC(=O)Nc1cc(Nc2ncc(Cl)c(Nc3ccccc3P(C)(C)=O)n2)c(OC)cc1C#CCN(C)C1CCCC1 [Example 168, N-(5-((5-chloro-4-((2-(dimethylphosphoryl)phenyl)amino)pyrimidin-2-yl)amino)-2-(3-(cyclopentyl(methyl)amino)prop-1-yn-1-yl)-4-methoxyphenyl)acrylamide]
< 50 nM: IC50 (EGFR L858R) | GI50 [1] | GI50 [2] | IC50 [3] | IC50 (EGFR L858R/T790M) | IC50 [4]

— patent US9834571B2, “Compounds for inhibiting cell proliferation in EGFR-driven cancers” (ARIAD Pharmaceuticals, Inc., priority 2012, dated 2017)
